Source: patent US11674967B2, “Method of identifying potential inhibitors of APO TNFα trimers” (UCB BIOPHARMA SRL, priority 2015, dated 2023)
Values belong to the compound of their own block, whether it stands above or below them.

Molecular target: T1, human TNFα trimer (Homo sapiens, UniProt P01375)
T1 construct: His6Smt-tag (N, cleaved yes); made in house; host or cells: E. coli (vector pEMB54)
Assay: RMSD of crystal structure of compound-bound TNFα trimer to Reference Structure Compound 34
Conditions: Cα atoms of β-sheet residues, all three subunits, PyMOL
Description: Cells were pre-cultured at 37° C. in rich media, induced with the addition of 0.1% arabinose and allowed to express overnight at 25° C. in vector pEMB54. This vector introduces a cleavable N-terminal His6Smt-tag. The cells were lysed and purified by Ni-NTA chelate chromatography. The fusion protein was eluted with buffer containing imidazole and cleaved by the addition of protease. The final cleaved TNFα protein was purified by a subtractive Ni chelate chromatography step to remove the fusion tag and further purified by size exclusion chromatography to remove the remaining impurities. The final TNFα product was typically concentrated to 20.0 mg/ml and flash frozen in liquid nitrogen.
Purified human TNF[…] (20.0 mg/ml, VC 2043) was diluted to 4-7 mg/ml in 10 mM HEPES pH 7.5, 150 mM NaCl buffer followed by overnight incubation at 4° C. with 0.3-0.5 mM compound (1-2 molar excess). The TNF[…] compound complexes were crystallized by sitting drop vapor diffusion by mixing 0.5 μl of complex with 0.5 μl of 21.44% PEG 3350, 100 mM Tris, pH 9.0 (UCB1474433); or 22.0% PEG 3350, 100 mM glycine, 100 mM Tris, pH 8.5 (UCB1480595); or 25.6% PEG 3350, 100 mM Tris, pH 8.3, 3% xylitol (UCB5143079) or other formulation with varying precipitant concentration or additives over 100 μl of the same crystallization solution. Other formulations for other compounds include a range of PEG 3350 of 8-28%. Other PEG-like additives include PEG 1000 (8-18%) or PEG 2000 (10-13%). Other additives include MPD (5-13%) or 200 mM NaCl. Other buffers include 100 mM Hepes (pH 7-8), 100 mM Tris or bis-Tris (pH 6.7-9.0). Other non-PEG 3350 crystallization solutions consist of PEG 2000 (14-19%), 100 mM Hepes, pH 8, 25 mM arginine; or 17% PEG 10000, 200 mM ammonium acetate, 100 mM bis-Tris, pH 5.5; or 30% PEG 2000 MME, 100 mM sodium acetate, 100 mM Mes, pH 6.5.
Crystals were briefly soaked in ethylene glycol and/or vitrified directly in liquid nitrogen for data collection.
X-ray diffraction data were collected from a synchrotron source at a wavelength, most frequently, of 0.976484 Å and recorded on CCD detector. […] The structure of the human TNF[…] (VC 2043) complexed with compound was solved by molecular replacement using Phaser with input model of 1TNF. […] Iterative manual model building using Coot (Emsley and Cowtan, 2004) and Refmac (Murshudov et al., 1997) continued until R and Rfree converged. […] The resolution of the structures was most frequently around 2.15 Å.
Root mean squared deviation (RMSD) calculations were carried out to ascertain the distance of each of the crystal structures of distorted TNFα trimer to a reference structure.
RMSD calculations were done using the program PyMOL (www.pymol.org). In this example version 1.7. was used. The cmd.rms PyMOL command was used with defined pairs of atoms. The atoms used were the backbone Ca's of certain residues within the β-strands of TNFα. The residue numbers used are shown below:
These residue numbers are those within the published structure of TNFα with PDB code 1A8M and within the distorted TNFα trimer structures of this invention. The residue numbers are also according to the sequence of SEQ ID NO:36. The residues in each of the three chains with the TNFα structures, (labelled A, B, and C according to our instructions) were used.
The command cmd.rms was used with the following arguments:
rms=cmd.rms(“(moving)”, “(target)”, matchmaker=4, quiet=0, cycles=0)
where “(moving)” is the selection of atoms in a given TNFα structure and “(target)” is the selection of equivalent atoms within the reference structure.
The RMSD was calculated for each structure against all others. The “representative structure” or “Reference Structure” was chosen to be the one with the lowest sum RMSD to all others—the structure “Compound 34” or “Compound34.pdb”.
Reference Structure (Compound 34) and Query Structure (Compound 64) were overlaid (see FIG. 17 with Reference Structure emboldened) by: • 1. […]

T1 sequence (P01375 with tags, fused parts or gaps): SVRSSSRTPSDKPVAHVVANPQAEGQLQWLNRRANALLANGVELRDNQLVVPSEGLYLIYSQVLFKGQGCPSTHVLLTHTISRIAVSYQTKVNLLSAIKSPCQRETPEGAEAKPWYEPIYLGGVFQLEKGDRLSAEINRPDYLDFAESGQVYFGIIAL

- RMSD (Å) with Compound 34: 0.21 Å
Compound: Cc1ccc(C)c(Cn2c(Cn3cc(-c4cccc(O)c4)nn3)nc3ccccc32)c1 [Compound 6]

- RMSD (Å) with Compound 34: 0.30 Å
Compound: Clc1ccc(Cl)c(Cn2c(Cc3ccncc3)nc3ccccc32)c1 [Compound 8]

- RMSD (Å) with Compound 34: 0.30 Å
Compound: Cc1ccc(C)c(Cn2c(C(O)c3ccncc3)nc3cc(-c4ccc(N5CCNCC5)cc4)ccc32)c1 (stereo not drawn) [Compound 11]

- RMSD (Å) with Compound 34: 0.27 Å
Compound: Cc1ccc(C)c(Cn2c(C(O)c3ccncc3)nc3ccc(-c4cn[nH]c4)cc32)c1 (stereo not drawn) [Compound 12]

- RMSD (Å) with Compound 34: 0.30 Å
Compound: Cc1ccc(C)c(Cn2c(CO)nc3ccc(-c4ccc(N(C)C)nc4)cc32)c1 [Compound 14]

- RMSD (Å) with Compound 34: 0.47 Å
Compound: Cc1ccc(C)c(Cn2c(COc3ccc4ccncc4c3)nc3ccccc32)c1 [Compound 16]

- RMSD (Å) with Compound 34: 0.44 Å
Compound: Cc1ccc(C)c(Cn2c(COCc3ccccc3[N+](=O)[O-])nc3ccccc32)c1 [Compound 17]

- RMSD (Å) with Compound 34: 0.31 Å
Compound: Cc1ccc(C)c(Cn2c(Cc3ccncc3)nc3ccc(-c4ccncc4)cc32)c1 [Compound 18]

- RMSD (Å) with Compound 34: 0.21 Å
Compound: Cc1ccc(C)c(Cn2c(Cc3ccncc3)nc3ccc(-c4ccc(CN5CCCC5)cc4)cc32)c1 [Compound 19]

- RMSD (Å) with Compound 34: 0.22 Å
Compound: CNC(=O)c1ccc(OCc2nc3ccc(-c4ccncc4)cc3n2Cc2cc(Cl)ccc2Cl)cc1 [Compound 20]

- RMSD (Å) with Compound 34: 0.22 Å
Compound: NC(=O)c1ccc(OCc2nc3ccc(-c4cc[n+]([O-])cc4)cc3n2Cc2cc(Cl)ccc2Cl)cc1 [Compound 21]

- RMSD (Å) with Compound 34: 0.23 Å
Compound: Cc1nc(Cn2c(COc3ccc(C(N)=O)cc3)nc3ccc(-c4cc[n+]([O-])cc4)cc32)cs1 [Compound 22]

- RMSD (Å) with Compound 34: 0.24 Å
Compound: Cc1nc(Cn2c(COc3ccc(C(N)=O)cc3)nc3ccc(-c4ccncn4)cc32)cs1 [Compound 23]

- RMSD (Å) with Compound 34: 0.38 Å
Compound: Cc1nc2cnc(-c3ccc(=O)[nH]c3)cn2c1Cc1cc(Cl)ccc1Cl [Compound 26]

- RMSD (Å) with Compound 34: 0.24 Å
Compound: N#Cc1ccc2nc(COc3ccc(C(N)=O)nc3)n(Cc3ccccc3OC(F)F)c2c1 [Compound 27]

- RMSD (Å) with Compound 34: 0.29 Å
Compound: CS(=O)(=O)c1cccc(OCc2nc3ccc(C#N)cc3n2Cc2cc(Cl)ccc2Cl)c1 [Compound 28]

- RMSD (Å) with Compound 34: 0.24 Å
Compound: N#Cc1ccc2nc(COc3cccc(N4CCCC4=O)c3)n(Cc3cc(Cl)ccc3Cl)c2c1 [Compound 29]

- RMSD (Å) with Compound 34: 0.23 Å
Compound: N#Cc1ccc2nc(Cc3ccc(NC(N)=O)cc3)n(Cc3ccccc3OC(F)F)c2c1 [Compound 30]

- RMSD (Å) with Compound 34: 0.14 Å
Compound: COCc1nc2ccc(-c3ccc(N4CCN(C(C)=O)CC4)nc3)cc2n1Cc1ccccc1OC(F)F [Compound 33]

- RMSD (Å) with Compound 34: 0.16 Å
Compound: N#Cc1ccc2nc(COc3cccc(N4CCC(O)C4=O)c3)n(Cc3ccccc3OC(F)F)c2c1 (stereo not drawn) [Compound 35]

- RMSD (Å) with Compound 34: 0.21 Å
Compound: N#Cc1ccc2nc(COc3cccc(N4CC(O)CC4=O)c3)n(Cc3ccccc3OC(F)F)c2c1 (stereo not drawn) [Compound 36]

- RMSD (Å) with Compound 34: 0.22 Å
Compound: N#Cc1ccc2nc(COc3cccc(N4CC(O)CC4=O)c3)n(Cc3ccccc3OC(F)F)c2c1 (stereo not drawn) [Compound 37]

- RMSD (Å) with Compound 34: 0.17 Å
Compound: COCc1nc2ccc(-c3ccc(N4CCNC(=O)C4)nc3)cc2n1Cc1ccccc1OC(F)F [Compound 38]

- RMSD (Å) with Compound 34: 0.21 Å
Compound: CC(c1ccccc1)n1c(COc2cccc(N3CCCC3=O)c2)nc2ccc(C#N)cc21 (stereo not drawn) [Compound 42]

- RMSD (Å) with Compound 34: 0.24 Å
Compound: COc1ccc(-c2ccc3nc(Cc4ccc(S(C)(=O)=O)cc4)n(C(C)c4ccccc4)c3c2)cn1 (stereo not drawn) [Compound 45]

- RMSD (Å) with Compound 34: 0.28 Å
Compound: CS(=O)(=O)c1ccc(-c2ccc3nc4n(c3c2)C(c2ccccc2OC(F)F)CC4)cc1 (stereo not drawn) [Compound 61]

- RMSD (Å) with Compound 34: 0.16 Å
Compound: CS(=O)(=O)c1ccc(Cc2nc3ccc(-c4ccc(S(C)(=O)=O)cc4)cc3n2Cc2ccccc2OC(F)F)cc1 [Compound 62]

Continued, compound first:

Compound: Cc1ccc(C)c(Cn2c(C(O)c3ccc(N(C)C)cc3)nc3ccccc32)c1 (stereo not drawn) [Compound 4]
- RMSD (Å) with Compound 34: 0.21 Å

Compound: Cc1ccc(C)c(Cn2c(COCc3ccncc3)nc3ccccc32)c1 [Compound 7]
- RMSD (Å) with Compound 34: 0.25 Å

Compound: Cc1ccc(C)c(Nn2c(C(O)c3ccncc3)nc3ccccc32)c1 (stereo not drawn) [Compound 9]
- RMSD (Å) with Compound 34: 0.28 Å

Compound: Cc1ccc(C)c(Cn2c(C(N)c3ccccc3)nc3ccccc32)c1 (stereo not drawn) [Compound 10]
- RMSD (Å) with Compound 34: 0.25 Å

Compound: COC(=O)CCc1ccc2nc(C(O)c3ccncc3)n(Cc3cc(C)ccc3C)c2c1 (stereo not drawn) [Compound 13]
- RMSD (Å) with Compound 34: 0.36 Å

Compound: Cc1nc2ccc(-c3cnn(C)c3)cn2c1Cc1cc(Cl)ccc1Cl [Compound 24]
- RMSD (Å) with Compound 34: 0.28 Å

Compound: COc1ccc(OCc2nc3ccc(Br)cc3n2Cc2nc(C)sc2Cl)cn1 [Compound 25]
- RMSD (Å) with Compound 34: 0.34 Å

Compound: N#Cc1ccc2nc(Cc3csc(N4CCNC4=O)n3)n(Cc3ccccc3OC(F)F)c2c1 [Compound 31]
- RMSD (Å) with Compound 34: 0.24 Å

Compound: Cc1nc2ccc(-c3ccc(N4CCNCC4)nc3)cc2n1Cc1ccccc1OC(F)F [Compound 32]
- RMSD (Å) with Compound 34: 0.24 Å

Compound: N#Cc1ccc2nc(Cn3nnc(N4CCOCC4)n3)n(Cc3ccccc3OC(F)F)c2c1 [Compound 40]
- RMSD (Å) with Compound 34: 0.17 Å

Compound: Cc1cc(OCc2nc3ccc(C#N)cc3n2C(C)c2ccccc2)no1 (stereo not drawn) [Compound 41]
- RMSD (Å) with Compound 34: 0.20 Å

Compound: COCCNc1ncc(-c2ccc3nc(C)n(Cc4ccccc4OC(F)F)c3c2)cn1 [Compound 44]
- RMSD (Å) with Compound 34: 0.25 Å

Compound: Cc1nc2ccc(-c3cnc(N4CCC(C(=O)O)CC4)nc3)cn2c1Cc1ccccc1OC(F)F [Compound 46]
- RMSD (Å) with Compound 34: 0.27 Å

Compound: Cc1nc2ccc(-c3ccc(N4CCNCC4)nc3)cn2c1C(O)c1ccccc1OC(F)F (stereo not drawn) [Compound 47]
- RMSD (Å) with Compound 34: 0.26 Å

Compound: COc1ccc(-c2ccc3nc4c(n3c2)C(c2ccccc2)OCC4)cn1 (stereo not drawn) [Compound 48]
- RMSD (Å) with Compound 34: 0.30 Å

Compound: Cc1ccc(C)c(C2CCc3nc4ccc(Br)cc4n32)c1 (stereo not drawn) [Compound 49]
- RMSD (Å) with Compound 34: 0.28 Å

Compound: CC(c1ccccc1OC(F)F)n1c(COc2cccc(N3CCCC3=O)c2)nc2ccc(Br)cc21 (stereo not drawn) [Compound 50]
- RMSD (Å) with Compound 34: 0.23 Å

Compound: FC(F)Oc1ccccc1C1NCCc2nc3ccc(-c4cnc(N5CCOCC5)nc4)cn3c21 (stereo not drawn) [Compound 51]
- RMSD (Å) with Compound 34: 0.34 Å

Compound: FC(F)Oc1ccccc1C1CCc2nc3ccc(Br)cc3n21 (stereo not drawn) [Compound 52]
- RMSD (Å) with Compound 34: 0.26 Å

Compound: CC(c1ccccc1OC(F)F)n1c(COc2cccc(N3CCCC3=O)c2)nc2ccc(Br)cc21 (stereo not drawn) [Compound 53]
- RMSD (Å) with Compound 34: 0.24 Å

Compound: Cc1cc2nc(C)c(Cc3ccccc3OC(F)F)n2cc1-c1cnc(NCC2(C(=O)O)CC2)nc1 [Compound 54]
- RMSD (Å) with Compound 34: 0.32 Å

Compound: Cc1nc2ccc(-c3cnc(N4CCNC(=O)CC4C)nc3)cn2c1Cc1ccccc1OC(F)F (stereo not drawn) [Compound 55]
- RMSD (Å) with Compound 34: 0.26 Å

Compound: Cc1nc2ccc(-c3cnc(N4CCNC(=O)C4)nc3)cn2c1[C@@H](O)c1ccccc1OC(F)F [Compound 56]
- RMSD (Å) with Compound 34: 0.24 Å

Compound: Cc1nc2ccc(-c3cnc(N4CCNC(=O)CC4)nc3)cn2c1C(C)c1ccccc1OC(F)F (stereo not drawn) [Compound 57]
- RMSD (Å) with Compound 34: 0.30 Å
